Each molecule was assayed on barley net blotch fungus (Pyrenophora teres) (assay: Barley net blotch control test, foliar spray on barley (Test Examples 4, 16, 17, 18)). Conditions: 12.5 ppm foliar spray, barley NISHINOHOSHI, inoculated after 2 days.
Format: in vivo

| SMILES | area of lesion spots relative to that on an untreated plant |
| --- | --- |
| CCOc1cccc(-n2nnn(C)c2=O)c1COc1ccc(-c2cccc(C)n2)cc1C [Present Compound 53] | ≤ 30% |

These molecules were tested on wheat leaf blotch fungus (Septoria tritici) (assay: Wheat leaf blotch control test, spray before inoculation (Test Examples 6, 9, 10, Comparative Test Example)). Conditions: 500 ppm foliar spray, wheat APOGEE, inoculated after 4 days.
Format: in vivo

| SMILES | area of lesion spots relative to that on an untreated plant |
| --- | --- |
| Cn1nnn(-c2ccccc2COc2ccc(-c3ccccc3)cc2)c1=O [1-methyl-4-[2-(4-phenyl-phenoxymethyl)-phenyl]-1,4-dihydrotetrazol-5-one, reference compound] | ≥ 70% |
| Cn1nnn(-c2ccccc2COc2ccc(-c3ccccn3)cc2)c1=O [Present Compound 223] | ≤ 30% |

These molecules were tested on common house mosquito (Culex pipiens pallens) (assay: Common house mosquito larvae mortality test (Test Example 30)). Conditions: 192 h, 3.5 ppm active ingredient in water, last instar larvae, after 8 days.
Format: in vivo
Procedure: (§1) In the present Test Example, a water dilution containing a surfactant prepared by adjusting so as to contain a predetermined concentration (500 ppm) of the present compound was used as a test chemical solution.
The above test chemical solution (0.7 mL) was added to 100 mL of deionized water to adjust the concentration of an active ingredient to 3.5 ppm. Twenty (20) heads of last instar larvae of common house mosquito (Culex pipiens pallens) were released in the solution and the number of dead insects was counted after 8 days.
Mortality was determined by the following equation. Mortality (%)=(number of dead insects/number of test insects)×100

| SMILES | mortality at 3.5 ppm |
| --- | --- |
| CCc1cccc(-n2nnn(C)c2=O)c1COc1ccc(-c2nccc(C)n2)cc1C [Present Compound 93] | 100% |
| Cc1cc(-c2cccc(C#N)n2)ccc1OCc1c(C2CC2)cccc1-n1nnn(C)c1=O [Present Compound 116] | 100% |
| CCc1cccc(-n2nnn(C)c2=O)c1COc1cc(C)c(-c2ccc(F)cn2)cc1C [Present Compound 215] | 100% |
| Cc1cc(-c2ncc(F)cn2)ccc1OCc1c(C)cccc1-n1nnn(C)c1=O [Present Compound 236] | 100% |
| Cc1cc(-c2ncc(Cl)cn2)c(F)cc1OCc1c(C)cccc1-n1nnn(C)c1=O [Present Compound 242] | 100% |

These molecules were tested on cabbage moth (Plutella xylostella) (assay: Cabbage moth larvae mortality test on cabbage (Test Example 31)). Conditions: 120 h, 500 ppm spray on cabbage 20 mL/cup, third instar larvae, 25° C., after 5 days.
Format: in vivo
Procedure: as §1
Cabbage was planted in each of polyethylene cups and grown until the third true leaf or the fourth true leaf was developed. The above test chemical solution was sprayed over the cabbage (Brassicae oleracea) at a rate of 20 mL/cup. After drying the chemical solution, the polyethylene cup having a volume of 400 mL was covered. Ten (10) heads of third instar larvae of cabbage moth (Plutella xylostella) were released in the cup and the cup was covered with a Tetron fabric. The cup was held at 25° C. and, after 5 days, the number of the surviving insects was counted and the mortality of insects was calculated by the following equation.
Mortality (%)=(number of dead insects/number of test insects)×100

| SMILES | mortality at 500 ppm |
| --- | --- |
| Cc1cccc(-c2ccc(OCc3c(C)cccc3-n3nnn(C)c3=O)c(C)c2)n1 [Present Compound 48] | ≥ 90% |
| Cc1ccnc(-c2ccc(OCc3c(C4CC4)cccc3-n3nnn(C)c3=O)c(C)c2)n1 [Present Compound 92] | ≥ 90% |

The molecules below were run on cotton aphid (Aphis gossypii) (assay: Cotton aphid control test on cucumber (Test Example 32)). Conditions: 144 h, 20 mL sprayed on cucumber, after 6 days.
Format: in vivo
Procedure: In the present Test Example, a water dilution containing a surfactant prepared by adjusting so as to contain a predetermined concentration (500 ppm) of the present compound was used as a test chemical solution. Thirty (30) heads of cotton aphid (Aphis gossypii) (including adults and larvae) were released on the leaves of cucumber grown in a polyethylene cup until the first true leaf was developed. Next day, 20 mL of the above test chemical solution was sprayed. After 6 days, the number of the surviving insects was counted and the control value was calculated by the following equation. Control value (%)={1−(Cb×Tai)/(Cai×Tb)}×100 wherein symbols in the equation represent the followings: Cb: Number of insects before spraying chemical solution in untreated area; Cai: Number of surviving insects in untreated area; Tb: Number of insects before spraying chemical solution in treated area; and Tai: Number of surviving insects in treated area.

| SMILES | pest or weed control at 500 ppm |
| --- | --- |
| CCOc1cccc(-n2nnn(C)c2=O)c1COc1ccc(-c2ccccn2)cc1C [Present Compound 8] | ≥ 90% |
| Cc1ccnc(-c2ccc(OCc3c(C)cccc3-n3nnn(C)c3=O)c(C)c2)c1 [Present Compound 20] | ≥ 90% |
| CCOc1cccc(-n2nnn(C)c2=O)c1COc1ccc(-c2ccc(Cl)cn2)cc1C [Present Compound 29] | ≥ 90% |
| CCOc1cccc(-n2nnn(C)c2=O)c1COc1ccc(-c2cccc(Cl)n2)cc1C [Present Compound 41] | ≥ 90% |
| CCc1cccc(-c2ccc(OCc3c(OC)cccc3-n3nnn(C)c3=O)c(C)c2)n1 [Present Compound 45] | ≥ 90% |
| Cc1cccc(-c2ccc(OCc3c(C)cccc3-n3nnn(C)c3=O)c(C(F)(F)F)c2)n1 [Present Compound 59] | ≥ 90% |
| Cc1cc(-c2cccc(C#N)n2)ccc1OCc1c(C2CC2)cccc1-n1nnn(C)c1=O [Present Compound 116] | ≥ 90% |
| Cc1cccc(-c2ccc(OCc3ccccc3-n3nnn(C)c3=O)c(C(F)(F)F)c2)n1 [Present Compound 127] | ≥ 90% |
| CCc1cccc(-c2ccc(OCc3ccccc3-n3nnn(C)c3=O)c(C(F)(F)F)c2)n1 [Present Compound 130] | ≥ 90% |
| CCc1cccc(-c2ccc(OCc3c(C)cccc3-n3nnn(C)c3=O)c(C(F)(F)F)c2)n1 [Present Compound 131] | ≥ 90% |
| Cc1ccnc(-c2ccc(OCc3c(Cl)cccc3-n3nnn(C)c3=O)c(C(F)(F)F)c2)n1 [Present Compound 134] | ≥ 90% |
| Cc1ccnc(-c2ccc(OCc3ccccc3-n3nnn(C)c3=O)c(C(F)(F)F)c2)n1 [Present Compound 137] | ≥ 90% |
| CCc1cccc(-n2nnn(C)c2=O)c1COc1ccc(-c2nccc(C)n2)cc1C(F)(F)F [Present Compound 138] | ≥ 90% |
| C=C(C)c1cccc(-c2ccc(OCc3c(C)cccc3-n3nnn(C)c3=O)c(C)c2)n1 [Present Compound 148] | ≥ 90% |
| Cc1cc(-c2cccc(C(C)C)n2)ccc1OCc1c(C)cccc1-n1nnn(C)c1=O [Present Compound 149] | ≥ 90% |
| COc1cc(-c2cccc(C)n2)ccc1OCc1c(C)cccc1-n1nnn(C)c1=O [Present Compound 155] | ≥ 90% |
| Cc1cccc(-c2ccc(OCc3c(C)cccc3-n3nnn(C)c3=O)c(C#N)c2)n1 [Present Compound 156] | ≥ 90% |
| COc1ccncc1-c1cc(C)c(OCc2c(C)cccc2-n2nnn(C)c2=O)cc1C [Present Compound 192] | ≥ 90% |
| Cc1cc(-c2ccc(F)cn2)c(F)cc1OCc1c(C)cccc1-n1nnn(C)c1=O [Present Compound 195] | ≥ 90% |
| Cc1cccc(-n2nnn(C)c2=O)c1COc1cc(Cl)c(-c2ccccn2)cc1Cl [Present Compound 210] | ≥ 90% |
| Cc1cc(-c2ccc(F)cn2)c(C)cc1OCc1c(C2CC2)cccc1-n1nnn(C)c1=O [Present Compound 219] | ≥ 90% |
| Cc1ccc(-c2ccc(OCc3c(C)cccc3-n3nnn(C)c3=O)c(C)c2)nn1 [Present Compound 234] | ≥ 90% |
| Cc1cc(-c2ncc(F)cn2)ccc1OCc1c(C)cccc1-n1nnn(C)c1=O [Present Compound 236] | ≥ 90% |
| Cc1cc(-c2ncc(F)cn2)c(C)cc1OCc1c(C)cccc1-n1nnn(C)c1=O [Present Compound 238] | ≥ 90% |
